The text below walks through data of patent publication US20180303878A1, “TREATMENT FOR INFECTION COMPOSED OF MENSTRUAL STEM CELLS” (CELLS FOR CELLS, S.P.A., priority 2015, published 2018).

Format in all cases: in vivo, C57BL6/j mice
Assay [1] deals with CLP-induced sepsis. The assay can be described thus: Cytokine multiplex array evaluation in CLP mice. To be noted: 40 hours post-CLP, P≤0.05. The procedure:
(§1) In vivo studies were performed at the Universidad de los Andes-Cells for Cells Animal Facility (Santiago, Chile) in accordance with the institutional guidelines for the care and use of laboratory animals in research, revised and approved by the Institutional Ethical Committee for animal experimentation. C57BL6/j mice (8 to 12 weeks old; Jackson Laboratories, Bar Harbor, Me., USA) received ad libitum access to food and water during the whole experimental procedure. CLP-induced sepsis was performed as described previously (Rittirsch D et al., Immunodesign of experimental sepsis by cecal ligation and puncture. Nat Protoc. 2009) with some modifications. Briefly, mice were anesthetized with inhaled Sevofluorane (Baxter, Guayama, Puerto Rico) by using an anesthetic vaporizer. […]
The levels of inflammatory cytokines-monocyte chemoattractant protein-1 (MCP-1), TNF-α, IL-6, and […]—in CLP mice serum samples were determined by using a commercial BD™ Cytometric Bead Array Mouse Inflammation Kit (BD Biosciences Pharmingen, San Diego, Calif., USA) in accordance with the instructions of the manufacturer. Analysis was carried out by flow cytometry, and the concentration (in picograms per milliliter) was determined by using FCAP Array software (BD Biosciences). The parameters were determined 24 and 40 hours after CLP surgery.

Assay [2] relates to CLP-induced sepsis. Description: Blood biochemical analysis in CLP mice. To be noted: serum 24 hours post-surgery; sham 47.67±3.18, saline 90±21.47. The procedure: as §1, with “modifications.” for “modifications. Briefly, mice were anesthetized with inhaled Sevofluorane (Baxter, Guayama, Puerto Rico) by using an anesthetic vaporizer.”
(§2) Three hours after CLP-induced sepsis, mice were randomized and distributed into different experimental groups to receive single injections of saline (vehicle) (n=16), antibiotics (AB) (n=22), MenSCs (n=21), MenSCs+AB (n=22), MenSC CM (n=16), or MenSC CM+AB (n=22). […] For Kaplan-Meier survival curves, animals were assessed after CLP-induced sepsis every 12 hours for 4 days. […]
Plasma levels of blood urea nitrogen (BUN), bilirubin, alanine aminotransferase (ALT), aspartate aminotransferase (AST), alkaline phosphatase (ALP), albumin, amylase, and glucose were evaluated by using the Piccolo Xpress™ Chemistry Analyzer (Abaxis, Union City, Calif., USA) in accordance with the instructions of the manufacturer. […]

Assay [3] concerns CLP-induced sepsis. The assay can be described thus: Bacterial numbers in blood, peritoneal cavity and spleen in CLP-induced sepsis. To be noted: 24 hours post-CLP, in comparison with saline group, P≤0.05. How it is done: as §1, with “vaporizer. After a 1-cm incision was performed, the cecum was exposed and ligated in the middle portion with 5-0 dafilon suture (Braun, Rubi, Spain), punctured once with an 18-gauge needle (in order to induce high-grade sepsis), and returned to the peritoneal cavity. The abdominal incision was sutured with catgut 5-0 (Braun, Bogota, Colombia), and the skin was closed with Histoacryl (Braun).” for “vaporizer.”
Total blood, peritoneal fluid, and homogenized spleen in sterile saline were plated in a 10-fold dilution on blood agar plates and incubated at 37° C. overnight, and the number of CFUs was determined.

Assay [4] concerns CLP-induced sepsis. Description: Survival in polymicrobial CLP-induced sepsis (Kaplan-Meier). To be noted: 96 hours after treatment; treatment 3 hours after CLP; MenSCs 7.5×10^5 cells/mice intra-peritoneal, Enrofloxacin 5 mg/kg. The procedure:
as §1, §2
Data are expressed as mean±standard error. […]

In the case of `CCN1CCN(c2cc3c(cc2F)c(=O)c(C(=O)O)cn3C2CC2)CC1` [AB, Enrofloxacin], in the assay with CLP-induced sepsis [1] (in comparison with saline group), the IL-6 serum levels entry is “decreased”. Besides, the “levels of IL-10” value in the assay on CLP-induced sepsis [1] (in comparison with untreated mice) is on record as “reduction”. The “alkaline phosphatase (ALP) concentration” value in the assay on CLP-induced sepsis [2] turned out to be 74.25±12.03 U/l. Besides, in the assay on CLP-induced sepsis [3], the “CFU counts in peritoneal lavage” value is “decreased”. The compound also came in with a survival rate in the assay with CLP-induced sepsis [4] of 73%.
